Test results reported in patent US9340590B2 (priority 2011, dated 2016).
Positions of bridges follow the written chain, without caps; N, C: chain ends. Non-standard residues stand in square brackets, D forms with d. Residues, ends and D or L forms follow the SMILES beside them. *: point of attachment. Pent4ynoyl = C#CCCC(=O)*; Abu = CC[C@H](N)C(=O)O

Columns and labels:
Test in all cases: cell-based
[1] = target: hNav1.3 (Homo sapiens, UniProt Q9NY46); conditions: IonWorks Quattro, use-dependent block, hNav1.3; read-out: IWQ Use Nav1.3
[2] = target: hNav1.7 (Homo sapiens, UniProt Q15858); assay type: cell-based; conditions: IonWorks Quattro, use-dependent block, hNav1.7; read-out: IWQ Use Nav1.7
[3] = target: hNav1.5 (Homo sapiens, UniProt Q14524); conditions: IonWorks Quattro, use-dependent block, hNav1.5; read-out: IWQ Use Nav1.5
Sequence of hNav1.5 (Q14524 whole entry, looked up): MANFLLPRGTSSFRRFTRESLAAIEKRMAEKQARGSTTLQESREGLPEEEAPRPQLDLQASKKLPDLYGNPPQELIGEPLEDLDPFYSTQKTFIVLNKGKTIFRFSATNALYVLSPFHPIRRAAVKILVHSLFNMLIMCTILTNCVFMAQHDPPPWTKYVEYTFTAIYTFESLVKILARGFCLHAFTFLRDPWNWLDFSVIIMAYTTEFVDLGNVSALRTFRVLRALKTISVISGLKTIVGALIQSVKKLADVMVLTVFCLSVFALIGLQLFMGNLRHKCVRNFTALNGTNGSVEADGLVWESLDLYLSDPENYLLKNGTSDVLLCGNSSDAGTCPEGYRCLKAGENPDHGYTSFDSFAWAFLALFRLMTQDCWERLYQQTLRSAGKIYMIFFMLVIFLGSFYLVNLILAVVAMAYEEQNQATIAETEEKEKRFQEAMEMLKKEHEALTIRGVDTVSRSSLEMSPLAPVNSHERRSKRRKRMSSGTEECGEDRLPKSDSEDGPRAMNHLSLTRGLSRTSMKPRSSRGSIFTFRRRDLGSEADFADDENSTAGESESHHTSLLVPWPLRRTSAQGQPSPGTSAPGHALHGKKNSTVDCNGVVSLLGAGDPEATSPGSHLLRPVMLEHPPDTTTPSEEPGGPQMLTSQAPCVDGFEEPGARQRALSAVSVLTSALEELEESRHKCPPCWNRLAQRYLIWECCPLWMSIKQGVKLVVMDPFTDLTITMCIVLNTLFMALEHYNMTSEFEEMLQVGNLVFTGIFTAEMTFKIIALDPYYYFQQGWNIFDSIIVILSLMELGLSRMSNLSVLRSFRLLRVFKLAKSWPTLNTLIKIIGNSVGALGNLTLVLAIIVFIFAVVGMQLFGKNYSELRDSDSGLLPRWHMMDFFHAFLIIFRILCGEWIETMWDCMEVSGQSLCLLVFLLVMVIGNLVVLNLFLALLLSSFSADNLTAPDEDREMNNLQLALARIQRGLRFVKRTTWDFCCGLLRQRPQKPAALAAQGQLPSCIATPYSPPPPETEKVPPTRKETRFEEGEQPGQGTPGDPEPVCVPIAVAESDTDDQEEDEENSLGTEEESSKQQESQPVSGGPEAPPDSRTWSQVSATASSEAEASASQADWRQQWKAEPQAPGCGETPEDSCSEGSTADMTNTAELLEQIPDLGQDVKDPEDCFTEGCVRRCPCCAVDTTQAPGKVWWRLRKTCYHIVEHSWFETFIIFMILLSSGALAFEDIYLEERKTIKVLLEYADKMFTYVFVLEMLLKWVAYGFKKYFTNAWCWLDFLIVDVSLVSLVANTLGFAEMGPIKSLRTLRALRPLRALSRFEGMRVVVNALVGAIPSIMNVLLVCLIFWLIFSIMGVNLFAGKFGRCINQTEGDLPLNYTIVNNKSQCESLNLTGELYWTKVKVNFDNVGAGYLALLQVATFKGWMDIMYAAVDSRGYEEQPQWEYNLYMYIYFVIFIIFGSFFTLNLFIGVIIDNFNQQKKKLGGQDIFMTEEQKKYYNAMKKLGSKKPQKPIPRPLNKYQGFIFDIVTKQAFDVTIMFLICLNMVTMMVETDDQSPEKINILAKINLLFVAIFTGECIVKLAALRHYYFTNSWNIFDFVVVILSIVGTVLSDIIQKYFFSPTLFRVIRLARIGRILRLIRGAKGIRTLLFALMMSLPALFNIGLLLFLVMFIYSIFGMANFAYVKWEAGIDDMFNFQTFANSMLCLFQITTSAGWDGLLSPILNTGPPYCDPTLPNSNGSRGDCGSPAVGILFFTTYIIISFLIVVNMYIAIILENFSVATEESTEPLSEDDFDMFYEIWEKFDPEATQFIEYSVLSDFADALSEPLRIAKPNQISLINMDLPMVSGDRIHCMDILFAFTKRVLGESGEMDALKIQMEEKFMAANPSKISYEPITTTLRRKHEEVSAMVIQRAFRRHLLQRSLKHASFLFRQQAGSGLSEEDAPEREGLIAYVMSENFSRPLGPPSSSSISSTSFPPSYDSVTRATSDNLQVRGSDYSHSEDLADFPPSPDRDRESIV

Sequence of hNav1.3 (Q9NY46 whole entry, looked up): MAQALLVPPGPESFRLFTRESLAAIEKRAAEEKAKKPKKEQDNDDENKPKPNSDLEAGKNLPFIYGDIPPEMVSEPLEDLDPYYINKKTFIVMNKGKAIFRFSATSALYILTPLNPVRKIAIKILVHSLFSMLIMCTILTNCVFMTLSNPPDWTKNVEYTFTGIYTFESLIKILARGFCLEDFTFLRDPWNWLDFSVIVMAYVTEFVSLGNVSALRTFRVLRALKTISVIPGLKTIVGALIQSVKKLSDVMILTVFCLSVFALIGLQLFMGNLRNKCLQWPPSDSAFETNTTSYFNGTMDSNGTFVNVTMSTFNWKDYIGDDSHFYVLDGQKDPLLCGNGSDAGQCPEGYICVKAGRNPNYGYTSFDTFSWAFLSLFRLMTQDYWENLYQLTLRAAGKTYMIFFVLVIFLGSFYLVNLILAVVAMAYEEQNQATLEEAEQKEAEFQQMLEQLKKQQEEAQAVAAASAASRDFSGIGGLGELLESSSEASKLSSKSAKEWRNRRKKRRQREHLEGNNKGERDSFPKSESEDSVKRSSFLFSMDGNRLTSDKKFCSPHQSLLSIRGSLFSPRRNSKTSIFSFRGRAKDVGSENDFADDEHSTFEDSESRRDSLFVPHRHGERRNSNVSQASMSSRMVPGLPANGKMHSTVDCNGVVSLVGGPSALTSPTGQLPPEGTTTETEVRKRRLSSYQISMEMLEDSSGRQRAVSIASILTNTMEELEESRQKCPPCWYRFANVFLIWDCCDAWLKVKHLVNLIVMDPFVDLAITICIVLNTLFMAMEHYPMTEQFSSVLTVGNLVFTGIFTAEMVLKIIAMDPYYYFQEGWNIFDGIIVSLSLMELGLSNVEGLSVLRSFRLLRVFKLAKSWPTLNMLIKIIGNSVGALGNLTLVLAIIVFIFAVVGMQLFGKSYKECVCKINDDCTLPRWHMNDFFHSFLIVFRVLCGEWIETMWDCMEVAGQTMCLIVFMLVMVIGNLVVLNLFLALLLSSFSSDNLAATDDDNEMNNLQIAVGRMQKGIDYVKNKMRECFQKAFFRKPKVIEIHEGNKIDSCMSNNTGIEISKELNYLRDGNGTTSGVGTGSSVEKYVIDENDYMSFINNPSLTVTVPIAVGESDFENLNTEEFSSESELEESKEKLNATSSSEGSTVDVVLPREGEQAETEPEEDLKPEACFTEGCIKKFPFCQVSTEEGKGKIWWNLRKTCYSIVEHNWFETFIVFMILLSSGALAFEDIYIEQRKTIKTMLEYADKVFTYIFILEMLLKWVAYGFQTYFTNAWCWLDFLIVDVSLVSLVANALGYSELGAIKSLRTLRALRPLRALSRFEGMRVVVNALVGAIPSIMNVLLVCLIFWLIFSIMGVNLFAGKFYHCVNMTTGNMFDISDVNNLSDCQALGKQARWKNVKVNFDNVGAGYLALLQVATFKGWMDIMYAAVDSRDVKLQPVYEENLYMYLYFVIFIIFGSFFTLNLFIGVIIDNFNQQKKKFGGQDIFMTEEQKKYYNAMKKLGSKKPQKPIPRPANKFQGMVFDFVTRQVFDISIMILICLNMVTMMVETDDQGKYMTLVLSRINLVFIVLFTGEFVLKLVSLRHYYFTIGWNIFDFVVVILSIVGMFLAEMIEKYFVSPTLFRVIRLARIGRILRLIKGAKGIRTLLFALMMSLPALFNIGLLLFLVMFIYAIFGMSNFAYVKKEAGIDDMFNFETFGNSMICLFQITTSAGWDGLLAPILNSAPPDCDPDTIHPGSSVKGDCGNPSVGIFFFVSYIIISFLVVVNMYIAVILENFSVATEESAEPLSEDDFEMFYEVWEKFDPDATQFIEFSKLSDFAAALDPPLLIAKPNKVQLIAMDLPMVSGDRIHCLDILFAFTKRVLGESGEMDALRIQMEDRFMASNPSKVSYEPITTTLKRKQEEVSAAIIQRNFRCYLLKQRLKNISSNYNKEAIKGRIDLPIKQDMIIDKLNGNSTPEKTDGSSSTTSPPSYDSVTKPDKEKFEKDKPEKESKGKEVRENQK

## C#CCCC(=O)N[C@@H](CC(=O)O)C(=O)N[C@H]1CSSC[C@@H]2NC(=O)[C@@H]3CSSC[C@@H](C(=O)N[C@@H](CCCCN)C(=O)N[C@@H](Cc4ccc(O)cc4)C(=O)N[C@H](C(=O)N[C@@H](Cc4ccccc4)C(N)=O)C(C)C)NC(=O)[C@H](Cc4c[nH]c5ccccc45)NC(=O)[C@H](CCCNC(=N)N)NC(=O)[C@H](Cc4c[nH]cn4)NC(=O)[C@H]([C@@H](C)O)NC(=O)[C@H](CCCNC(=N)N)NC(=O)[C@H](CO)NC(=O)[C@H](CSSC[C@H](NC(=O)[C@H](CCCCN)NC(=O)[C@H](CCCNC(=N)N)NC(=O)[C@H](CC(C)C)NC(=O)[C@H](CC)NC(=O)CNC(=O)[C@H](CC(C)C)NC1=O)C(=O)N[C@@H]([C@@H](C)CC)C(=O)N1CCC[C@H]1C(=O)N[C@@H](CC(=O)O)C(=O)N[C@@H](CC)C(=O)N[C@@H](CC(=O)O)C(=O)N[C@@H](CCCCN)C(=O)N3)NC(=O)[C@H](C(C)C)NC(=O)[C@H](CC(C)C)NC(=O)[C@H](CC(N)=O)NC(=O)[C@@H]1CCCN1C(=O)[C@H](CCCNC(=N)N)NC2=O [compound 807] (Pent4ynoyl-DCLG[Abu]LRKCIPD[Abu]DKCCRPNLVCSRTHRWCKYVF-NH2; disulfide 2-17, 9-23, 16-30)
[1]
  IC50: 900 nM
[2]
  IC50: 540 nM
[3]
  IC50: 36800 nM

## C#CCCC(=O)NCCCC[C@@H]1NC(=O)[C@H](CC(=O)O)NC(=O)[C@@H]2CCCN2C(=O)[C@H]([C@@H](C)CC)NC(=O)[C@@H]2CSSC[C@@H]3NC(=O)[C@H](C(C)C)NC(=O)[C@H](CC(C)C)NC(=O)[C@H](CC(N)=O)NC(=O)[C@@H]4CCCN4C(=O)[C@H](CCCNC(=N)N)NC(=O)[C@H](CSSC[C@H](NC(=O)[C@@H](N)CC(=O)O)C(=O)N[C@@H](CC(C)C)C(=O)NCC(=O)N[C@@H](CC)C(=O)N[C@@H](CC(C)C)C(=O)N[C@@H](CCCNC(=N)N)C(=O)N[C@@H](CCCCN)C(=O)N2)NC(=O)[C@H](CSSC[C@@H](C(=O)N[C@@H](CCCCN)C(=O)N[C@@H](Cc2ccc(O)cc2)C(=O)N[C@H](C(=O)N[C@@H](Cc2ccccc2)C(N)=O)C(C)C)NC(=O)[C@H](Cc2c[nH]c4ccccc24)NC(=O)[C@H](CCC(=O)O)NC(=O)[C@H](Cc2c[nH]cn2)NC(=O)[C@H]([C@@H](C)O)NC(=O)[C@H](CCCNC(=N)N)NC(=O)[C@H](CO)NC3=O)NC(=O)[C@H](CCCCN)NC(=O)[C@H](CC(=O)O)NC1=O [compound 808] (H-DCLG[Abu]LRKCIPDK(Pent4ynoyl)DKCCRPNLVCSRTHEWCKYVF-NH2; disulfide 2-17, 9-23, 16-30)
[1]
  IC50: 4100 nM
[2]
  IC50: 1800 nM
[3]
  IC50: > 5000 nM

## CC[C@H](C)[C@@H]1NC(=O)[C@@H]2CSSC[C@@H]3NC(=O)[C@H](C(C)C)NC(=O)[C@H](CC(C)C)NC(=O)[C@H](CC(N)=O)NC(=O)[C@@H]4CCCN4C(=O)[C@H](CCCNC(=N)N)NC(=O)[C@H](CSSC[C@H](NC(=O)[C@H](CC(=O)O)NC(=O)[C@H](CO)NC(=O)CN)C(=O)N[C@@H](CC(C)C)C(=O)NCC(=O)N[C@@H](C)C(=O)N[C@@H](Cc4ccccc4)C(=O)N[C@@H](CCCNC(=N)N)C(=O)N[C@@H](CCCCN)C(=O)N2)NC(=O)[C@H](CSSC[C@@H](C(=O)N[C@@H](CCCCN)C(=O)N[C@@H](Cc2ccc(O)cc2)C(=O)N[C@H](C(=O)N[C@@H](Cc2ccccc2)C(N)=O)C(C)C)NC(=O)[C@H](Cc2c[nH]c4ccccc24)NC(=O)[C@H](CCCNC(=N)N)NC(=O)[C@H](Cc2c[nH]cn2)NC(=O)[C@H]([C@@H](C)O)NC(=O)[C@H](CCCNC(=N)N)NC(=O)[C@H](CO)NC3=O)NC(=O)[C@H](CCCCN)NC(=O)[C@H](CC(=O)O)NC(=O)[C@H](CC(N)=O)NC(=O)[C@H](CC(=O)O)NC(=O)[C@@H]2CCCN2C1=O [compound 811] (H-GSDCLGAFRKCIPDNDKCCRPNLVCSRTHRWCKYVF-NH2; disulfide 4-19, 11-25, 18-32)
[1]
  IC50: 300 nM
[2]
  IC50: 300 nM
[3]
  IC50: > 5000 nM

## CC[C@H](C)[C@@H]1NC(=O)[C@@H]2CSSC[C@@H]3NC(=O)[C@H](C(C)C)NC(=O)[C@H](CC(C)C)NC(=O)[C@H](CC(N)=O)NC(=O)[C@@H]4CCCN4C(=O)[C@H](CCCNC(=N)N)NC(=O)[C@H](CSSC[C@H](NC(=O)[C@H](CC(=O)O)NC(=O)[C@H](CO)NC(=O)CN)C(=O)N[C@@H](CC(C)C)C(=O)NCC(=O)N[C@@H](C)C(=O)N[C@@H](CC(C)C)C(=O)N[C@@H](CCCNC(=N)N)C(=O)N[C@@H](CCCCN)C(=O)N2)NC(=O)[C@H](CSSC[C@@H](C(=O)N[C@@H](CCCCN)C(=O)N[C@@H](Cc2ccc(O)cc2)C(=O)N[C@H](C(=O)N[C@@H](Cc2ccccc2)C(N)=O)C(C)C)NC(=O)[C@H](Cc2c[nH]c4ccccc24)NC(=O)[C@H](CCCNC(=N)N)NC(=O)[C@H](Cc2c[nH]cn2)NC(=O)[C@H]([C@@H](C)O)NC(=O)[C@H](CCCNC(=N)N)NC(=O)[C@H](CO)NC3=O)NC(=O)[C@H](CCCCN)NC(=O)[C@H](CC(=O)O)NC(=O)[C@H](CC(N)=O)NC(=O)[C@H](CC(=O)O)NC(=O)[C@@H]2CCCN2C1=O [compound 812] (H-GSDCLGALRKCIPDNDKCCRPNLVCSRTHRWCKYVF-NH2; disulfide 4-19, 11-25, 18-32)
[1]
  IC50: 200 nM
[2]
  IC50: 200 nM
[3]
  IC50: > 5000 nM

## CC[C@H](C)[C@@H]1NC(=O)[C@@H]2CSSC[C@@H]3NC(=O)[C@H](C(C)C)NC(=O)[C@H](CC(C)C)NC(=O)[C@H](CC(N)=O)NC(=O)[C@@H]4CCCN4C(=O)[C@H](CCCNC(=N)N)NC(=O)[C@H](CSSC[C@H](NC(=O)[C@@H](N)CC(=O)O)C(=O)N[C@@H](CC(C)C)C(=O)NCC(=O)N[C@@H](C)C(=O)N[C@@H](Cc4ccccc4)C(=O)N[C@@H](CCCNC(=N)N)C(=O)N[C@@H](CCCCN)C(=O)N2)NC(=O)[C@H](CSSC[C@@H](C(=O)N[C@@H](CCCCN)C(=O)N[C@@H](Cc2ccc(O)cc2)C(=O)N[C@H](C(=O)N[C@@H](Cc2ccccc2)C(=O)N[C@@H](Cc2c[nH]c4ccccc24)C(=O)O)C(C)C)NC(=O)[C@H](Cc2c[nH]c4ccccc24)NC(=O)[C@H](CCCNC(=N)N)NC(=O)[C@H](Cc2c[nH]cn2)NC(=O)[C@H]([C@@H](C)O)NC(=O)[C@H](CCCNC(=N)N)NC(=O)[C@H](CO)NC3=O)NC(=O)[C@H](CCCCN)NC(=O)[C@H](CC(=O)O)NC(=O)[C@H](CC(N)=O)NC(=O)[C@H](CC(=O)O)NC(=O)[C@@H]2CCCN2C1=O [compound 813] (H-DCLGAFRKCIPDNDKCCRPNLVCSRTHRWCKYVFW-OH; disulfide 2-17, 9-23, 16-30)
[1]
  IC50: > 5000 nM
[2]
  IC50: > 5000 nM
[3]
  IC50: > 5000 nM

## CC[C@H](C)[C@@H]1NC(=O)[C@@H]2CSSC[C@@H]3NC(=O)[C@H](C(C)C)NC(=O)[C@H](CC(C)C)NC(=O)[C@H](CC(N)=O)NC(=O)[C@@H]4CCCN4C(=O)[C@H](CCCNC(=N)N)NC(=O)[C@H](CSSC[C@H](NC(=O)[C@@H](N)CC(=O)O)C(=O)N[C@@H](CC(C)C)C(=O)NCC(=O)N[C@@H](C)C(=O)N[C@@H](CC(C)C)C(=O)N[C@@H](CCCNC(=N)N)C(=O)N[C@@H](CCCCN)C(=O)N2)NC(=O)[C@H](CSSC[C@@H](C(=O)N[C@@H](CCCCN)C(=O)N[C@@H](Cc2ccc(O)cc2)C(=O)N[C@H](C(=O)N[C@@H](Cc2ccccc2)C(=O)N[C@@H](Cc2c[nH]c4ccccc24)C(=O)O)C(C)C)NC(=O)[C@H](Cc2c[nH]c4ccccc24)NC(=O)[C@H](CCCNC(=N)N)NC(=O)[C@H](Cc2c[nH]cn2)NC(=O)[C@H]([C@@H](C)O)NC(=O)[C@H](CCCNC(=N)N)NC(=O)[C@H](CO)NC3=O)NC(=O)[C@H](CCCCN)NC(=O)[C@H](CC(=O)O)NC(=O)[C@H](CC(N)=O)NC(=O)[C@H](CC(=O)O)NC(=O)[C@@H]2CCCN2C1=O [compound 814] (H-DCLGALRKCIPDNDKCCRPNLVCSRTHRWCKYVFW-OH; disulfide 2-17, 9-23, 16-30)
[1]
  IC50: 600 nM
[2]
  IC50: 600 nM
[3]
  IC50: > 5000 nM

## CC[C@H](C)[C@@H]1NC(=O)[C@@H]2CSSC[C@@H]3NC(=O)[C@H](C(C)C)NC(=O)[C@H](CC(C)C)NC(=O)[C@H](CC(N)=O)NC(=O)[C@@H]4CCCN4C(=O)[C@H](CCCNC(=N)N)NC(=O)[C@H](CSSC[C@H](NC(=O)[C@H](CC(=O)O)NC(=O)[C@H](CO)NC(=O)CN)C(=O)N[C@@H](CC(C)C)C(=O)NCC(=O)N[C@@H](C)C(=O)N[C@@H](Cc4ccccc4)C(=O)N[C@@H](CCCNC(=N)N)C(=O)N[C@@H](CCCCN)C(=O)N2)NC(=O)[C@H](CSSC[C@@H](C(=O)N[C@@H](CCCCN)C(=O)N[C@@H](Cc2ccc(O)cc2)C(=O)N[C@H](C(=O)N[C@@H](Cc2ccccc2)C(=O)N[C@@H](Cc2c[nH]c4ccccc24)C(=O)O)C(C)C)NC(=O)[C@H](Cc2c[nH]c4ccccc24)NC(=O)[C@H](CCCNC(=N)N)NC(=O)[C@H](Cc2c[nH]cn2)NC(=O)[C@H]([C@@H](C)O)NC(=O)[C@H](CCCNC(=N)N)NC(=O)[C@H](CO)NC3=O)NC(=O)[C@H](CCCCN)NC(=O)[C@H](CC(=O)O)NC(=O)[C@H](CC(N)=O)NC(=O)[C@H](CC(=O)O)NC(=O)[C@@H]2CCCN2C1=O [compound 815] (H-GSDCLGAFRKCIPDNDKCCRPNLVCSRTHRWCKYVFW-OH; disulfide 4-19, 11-25, 18-32)
[1]
  IC50: > 5000 nM
[2]
  IC50: > 5000 nM
[3]
  IC50: > 5000 nM

## CC[C@H](C)[C@@H]1NC(=O)[C@@H]2CSSC[C@@H]3NC(=O)[C@H](C(C)C)NC(=O)[C@H](CC(C)C)NC(=O)[C@H](CC(N)=O)NC(=O)[C@@H]4CCCN4C(=O)[C@H](CCCNC(=N)N)NC(=O)[C@H](CSSC[C@H](NC(=O)[C@@H](N)CC(=O)O)C(=O)N[C@@H](CC(C)C)C(=O)NCC(=O)N[C@@H](C)C(=O)N[C@@H](Cc4ccccc4)C(=O)N[C@@H](CCCNC(=N)N)C(=O)N[C@@H](CCCCN)C(=O)N2)NC(=O)[C@H](CSSC[C@@H](C(=O)N[C@@H](CCCCN)C(=O)N[C@@H](Cc2ccc(O)cc2)C(=O)N[C@H](C(=O)N[C@@H](Cc2ccccc2)C(=O)N[C@@H](Cc2ccccc2)C(=O)O)C(C)C)NC(=O)[C@H](Cc2c[nH]c4ccccc24)NC(=O)[C@H](CCCNC(=N)N)NC(=O)[C@H](Cc2c[nH]cn2)NC(=O)[C@H]([C@@H](C)O)NC(=O)[C@H](CCCNC(=N)N)NC(=O)[C@H](CO)NC3=O)NC(=O)[C@H](CCCCN)NC(=O)[C@H](CC(=O)O)NC(=O)[C@H](CC(N)=O)NC(=O)[C@H](CC(=O)O)NC(=O)[C@@H]2CCCN2C1=O [compound 817] (H-DCLGAFRKCIPDNDKCCRPNLVCSRTHRWCKYVFF-OH; disulfide 2-17, 9-23, 16-30)
[1]
  IC50: 500 nM
[2]
  IC50: 1500 nM
[3]
  IC50: > 5000 nM
